# Experimental data from ChEMBL document CHEMBL4184141, “Investigating the Antibacterial Activity of Biphenylthiazoles against Methicillin- and Vancomycin-Resistant Staphylococcus aureus (MRSA and VRSA)” (J Med Chem, 2017).
# Calls of active or inactive are those of the source. The calls are words filed in the database; no cut-off is given here.
# Tests used:
# [1] = Aqueous solubility of the compound in PBS after 2 hrs by turbidimetric method; type: physicochemical
# Staphylococcus aureus [2] = assay: Antibacterial activity against methicillin-resistant Staphylococcus aureus 2658 RCMB up to 20 hrs by broth microdilution assay; type: functional
# Staphylococcus aureus [3] = assay: Potentiation of vancomycin-induced antibacterial activity against vancomycin-resistant Staphylococcus aureus VRS10 assessed as fold reduction in vancomycin MIC at 0.5 times MIC after 20 to 22 hrs; type: functional
# Staphylococcus aureus [4] = assay: Bactericidal activity against vancomycin-resistant Staphylococcus aureus VRS12 up to 18 hrs by broth microdilution assay; type: functional; conditions: VRS12, 18 h, read-out: MBC99.9
# Staphylococcus aureus [5] = assay: Antibacterial activity against Staphylococcus aureus RN4220 up to 20 hrs by broth microdilution assay; type: functional; conditions: RN4220, 20 h
# Staphylococcus aureus [6] = assay: Antibacterial activity against vancomycin-resistant Staphylococcus aureus VRS11a up to 20 hrs by broth microdilution assay; type: functional
# Staphylococcus aureus [7] = assay: Bactericidal activity against methicillin-resistant Staphylococcus aureus USA400 NRS123 up to 18 hrs by broth microdilution assay; type: functional; conditions: USA400 NRS123, 18 h, read-out: MBC99.9
# Staphylococcus aureus [8] = assay: Bactericidal activity against vancomycin-resistant Staphylococcus aureus VRS10 up to 18 hrs by broth microdilution assay; type: functional; conditions: VRS10, 18 h, read-out: MBC99.9
# Staphylococcus aureus [9] = assay: Bactericidal activity against vancomycin-resistant Staphylococcus aureus VRS11a up to 18 hrs by broth microdilution assay; type: functional; conditions: read-out: MBC99.9
# Staphylococcus aureus [10] = assay: Antibacterial activity against vancomycin-resistant Staphylococcus aureus VRS12 up to 20 hrs by broth microdilution assay; type: functional; conditions: VRS12, 20 h
# Staphylococcus aureus [11] = assay: Antibacterial activity against vancomycin-resistant Staphylococcus aureus VRS10 up to 20 hrs by broth microdilution assay; type: functional; conditions: VRS10, 20 h
# Pseudomonas aeruginosa = assay: Antibacterial activity against Pseudomonas aeruginosa ATCC 15442 up to 20 hrs by broth microdilution assay; type: functional; conditions: ATCC 15442, 20 h
# Staphylococcus aureus [12] = assay: Potentiation of vancomycin-induced antibacterial activity against vancomycin-resistant Staphylococcus aureus VRS10 assessed as reduction in vancomycin MIC after 20 hrs by checkerboard assay; type: functional
# Staphylococcus aureus [13] = assay: Synergistic antibacterial activity against vancomycin-resistant Staphylococcus aureus VRS10 after 20 hrs in presence of vancomycin by checkerboard assay; type: functional; conditions: VRS10, 20 h
# Staphylococcus aureus [14] = assay: Bactericidal activity against methicillin-resistant Staphylococcus aureus NRS119 up to 18 hrs by broth microdilution assay; type: functional; conditions: NRS119, 18 h, read-out: MBC99.9
# Staphylococcus aureus [15] = assay: Antibacterial activity against methicillin-resistant Staphylococcus aureus USA400 NRS123 up to 20 hrs by broth microdilution assay; type: functional; conditions: USA400 NRS123, 20 h
# Enterococcus faecium = assay: Antibacterial activity against vancomycin-resistant Enterococcus faecium ATCC 700221 up to 20 hrs by broth microdilution assay; type: functional; conditions: ATCC 700221, 20 h
# Staphylococcus aureus [16] = assay: Antibacterial activity against methicillin-resistant Staphylococcus aureus NRS119 up to 20 hrs by broth microdilution assay; type: functional; conditions: NRS119, 20 h
# [17] = Selectivity index, ratio of cytotoxic concentration for human HRT18 cells to MIC for methicillin-resistant Staphylococcus aureus; type: toxicity; conditions: read-out: Selectivity Index
# Staphylococcus aureus [18] = assay: Bactericidal activity against Staphylococcus aureus RN4220 up to 18 hrs by broth microdilution assay; type: functional; conditions: RN4220, 18 h, read-out: MBC99.9
# Staphylococcus aureus [19] = assay: Antibacterial activity against methicillin-resistant Staphylococcus aureus USA300 infected in Caenorhabditis elegans AU37 harboring (sek-1(km4);glp-4(bn2)I) mutant assessed as reduction in bacterial burden at 20 ug/ml after 18 hrs by microscopic analysis relative to control; type: functional; set-up: scale not given: the % may be the effect or the level left
# HRT-18 cell line [20] = assay: Cytotoxicity against human HRT18 cells up to 64 microg/ml after 6 hrs by MTS assay; type: cell-based; conditions: hrt-18, 6 h
# Staphylococcus aureus [21] = assay: Potentiation of vancomycin-induced antibacterial activity against vancomycin-resistant Staphylococcus aureus VRS10 assessed as vancomycin MIC after 20 hrs by checkerboard assay; type: functional; conditions: VRS10, 20 h
# Staphylococcus aureus [22] = assay: Bactericidal activity against methicillin-resistant Staphylococcus aureus USA300 assessed as time required to reduce bacterial load to 0 at 4 times MIC by time-kill assay; type: functional
# [23] = Half life in human liver microsomes in absence of NADPH by LC-MS/MS analysis; type: ADME, microsome
# [24] = Half life in human liver microsomes in presence of NADPH by LC-MS/MS analysis; type: ADME, microsome
# Staphylococcus aureus [25] = assay: Potency index, ratio of vancomycin MIC to compound MIC for antibacterial activity against vancomycin-resistant Staphylococcus aureus VRS10; type: functional
# Staphylococcus aureus [26] = assay: Potency index, ratio of vancomycin MIC to compound MIC for antibacterial activity against vancomycin-resistant Staphylococcus aureus VRS12; type: functional
# [27] = Intrinsic clearance in human liver microsomes in presence of NADPH by LC-MS/MS analysis; type: ADME, microsome; conditions: read-out: CLH
# HRT-18 cell line [28] = assay: Cytotoxicity against human HRT18 cells at 64 microg/ml after 6 hrs by MTS assay; type: cell-based; conditions: hrt-18, 6 h
# HRT-18 cell line [29] = assay: Cytotoxicity against human HRT18 cells up to 32 microg/ml after 6 hrs by MTS assay; type: cell-based; conditions: hrt-18, 6 h
# [30] = Apparent permeability of the compound across basolateral side to apical side in human Caco2 cells by LC-MS/MS analysis; type: ADME, cell-based; conditions: Caco-2
# [31] = Efflux ratio of permeability from basolateral to apical side over apical to basolateral side of human Caco2 cells by LC-MS/MS analysis; type: ADME, cell-based; conditions: Caco-2
# [32] = Intrinsic clearance in human liver microsomes in absence of NADPH by LC-MS/MS analysis; type: ADME, microsome; conditions: read-out: CLH
# Staphylococcus aureus [33] = assay: Potency index, ratio of vancomycin MIC to compound MIC for antibacterial activity against vancomycin-resistant Staphylococcus aureus VRS11a; type: functional
smiles,measurement,setting,value
Cc1nc(-c2ccc(-c3ccccc3)cc2)sc1-c1ccnc(NC(=N)N)n1,solubility kinetic at 2 h,[1],2.2 µM
same,MIC,Staphylococcus aureus [2],1.56 µg/mL
Cc1nc(-c2ccc(-c3ccccc3)cc2)sc1-c1ccnc(NN2CCN(C)CC2)n1,fold change (FC),Staphylococcus aureus [3],128
same,MBC,Staphylococcus aureus [4],8 µg/mL
same,MIC,Staphylococcus aureus [5],4 µg/mL
same,MIC,Staphylococcus aureus [6],8 µg/mL
same,MBC,Staphylococcus aureus [7],4 µg/mL
same,MBC,Staphylococcus aureus [8],8 µg/mL
same,MBC,Staphylococcus aureus [9],8 µg/mL
same,MIC,Staphylococcus aureus [2],0.78 µg/mL
same,MIC,Staphylococcus aureus [10],8 µg/mL
same,MIC,Staphylococcus aureus [11],8 µg/mL
same,MIC,Pseudomonas aeruginosa,> 64 µg/mL
same,fractional inhibitory concentration index (FICI),Staphylococcus aureus [12],0.51 - 0.56
same,MIC,Staphylococcus aureus [13],4 µg/mL
same,MBC,Staphylococcus aureus [14],4 µg/mL
same,MIC,Staphylococcus aureus [15],4 µg/mL
same,MIC,Enterococcus faecium,> 64 µg/mL
same,MIC,Staphylococcus aureus [16],4 µg/mL
same,selectivity ratio,[17],16
same,MBC,Staphylococcus aureus [18],8 µg/mL
same,Activity,Staphylococcus aureus [19],46%
same,Activity,HRT-18 cell line [20],Non-Toxic
same,MIC,Staphylococcus aureus [21],4 to 8 µg/mL
CN[C@H](CC(C)C)C(=O)N[C@H]1C(=O)N[C@@H](CC(N)=O)C(=O)N[C@H]2C(=O)N[C@H]3C(=O)N[C@H](C(=O)N[C@H](C(=O)O)c4cc(O)cc(O)c4-c4cc3ccc4O)[C@H](O)c3ccc(c(Cl)c3)Oc3cc2cc(c3O[C@@H]2O[C@H](CO)[C@@H](O)[C@H](O)[C@H]2O[C@H]2C[C@](C)(N)[C@H](O)[C@H](C)O2)Oc2ccc(cc2Cl)[C@H]1O [VANCOMYCIN],MBC,Staphylococcus aureus [4],256 µg/mL
same,MIC,Staphylococcus aureus [6],> 512 µg/mL
same,MBC,Staphylococcus aureus [7],1 µg/mL
same,MBC,Staphylococcus aureus [8],512 µg/mL
same,MBC,Staphylococcus aureus [9],> 512 µg/mL
same,MIC,Staphylococcus aureus [2],1.56 µg/mL
same,MIC,Staphylococcus aureus [10],16 µg/mL
same,MIC,Staphylococcus aureus [11],128 to 512 µg/mL
same,Time,Staphylococcus aureus [22],24 h
same,MBC,Staphylococcus aureus [14],1 µg/mL
same,MIC,Enterococcus faecium,> 64 µg/mL
same,MBC,Staphylococcus aureus [18],1 µg/mL
Cc1nc(-c2ccc(-c3ccccc3)cc2)sc1-c1ccnc(NC(=N)N2CCN(C)CC2)n1,Activity,Staphylococcus aureus [3],inactive
same,MBC,Staphylococcus aureus [4],8 µg/mL
same,half-life,[23],> 4 h
same,MIC,Staphylococcus aureus [5],2 µg/mL
same,half-life,[24],2.52 h
same,MIC,Staphylococcus aureus [6],4 µg/mL
same,Ratio,Staphylococcus aureus [25],100
same,MBC,Staphylococcus aureus [7],2 µg/mL
same,MBC,Staphylococcus aureus [8],8 µg/mL
same,solubility kinetic at 2 h,[1],2.3 µM
same,MBC,Staphylococcus aureus [9],8 µg/mL
same,MIC,Staphylococcus aureus [2],0.39 µg/mL
same,MIC,Staphylococcus aureus [10],2 µg/mL
same,Ratio,Staphylococcus aureus [26],8
same,MIC,Staphylococcus aureus [11],4 to 8 µg/mL
same,MIC,Pseudomonas aeruginosa,> 64 µg/mL
same,Time,Staphylococcus aureus [22],2 h
same,microsomal CLint,[27],15.3 µL/min/mg
same,Activity,HRT-18 cell line [28],Toxic
same,fractional inhibitory concentration index (FICI),Staphylococcus aureus [12],1.02
same,MIC,Staphylococcus aureus [13],0.13 µg/mL
same,MBC,Staphylococcus aureus [14],4 µg/mL
same,Activity,HRT-18 cell line [29],Non-Toxic
same,MIC,Staphylococcus aureus [15],1 µg/mL
same,MIC,Enterococcus faecium,16 µg/mL
same,MIC,Staphylococcus aureus [16],2 µg/mL
same,Papp B→A,[30],1.7 ×10⁻⁶ cm/s
same,efflux ratio,[31],> 2
same,microsomal CLint,[32],< 9.6 µL/min/mg
same,Ratio,Staphylococcus aureus [33],100
same,MBC,Staphylococcus aureus [18],8 µg/mL
same,Activity,Staphylococcus aureus [19],65%
same,MIC,Staphylococcus aureus [21],128 to 256 µg/mL
